From paper PMC7614683, “A small molecule PI3Kα activator for cardioprotection and neuroregeneration” (Nature, 2023)

What was measured:
Test in all cases: SelectScreen LanthaScreen Binding
Conditions in all cases: 1000 nM
MKNK2 (MNK2) = MKNK2 (MNK2) (Homo sapiens, UniProt Q9HBH9)
Procedure, shortened: (§1)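 A counterscreen of 133 protein and 7 lipid kinases was run with one compound concentration, 1 μM 1938, in SelectScreen Adapta, Lantha or Z-LYTE assays.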

CDK2/cyclin E1 = CDK2/cyclin E1 (Homo sapiens, UniProt P24941)
Procedure, shortened: as §1

RET V804M = RET V804M (Homo sapiens, UniProt P07949, V804M)
Procedure, shortened: as §1

MYLK (MLCK) = MYLK (MLCK) (Homo sapiens, UniProt Q15746)
MYLK (MLCK), sequence (Q15746 whole entry): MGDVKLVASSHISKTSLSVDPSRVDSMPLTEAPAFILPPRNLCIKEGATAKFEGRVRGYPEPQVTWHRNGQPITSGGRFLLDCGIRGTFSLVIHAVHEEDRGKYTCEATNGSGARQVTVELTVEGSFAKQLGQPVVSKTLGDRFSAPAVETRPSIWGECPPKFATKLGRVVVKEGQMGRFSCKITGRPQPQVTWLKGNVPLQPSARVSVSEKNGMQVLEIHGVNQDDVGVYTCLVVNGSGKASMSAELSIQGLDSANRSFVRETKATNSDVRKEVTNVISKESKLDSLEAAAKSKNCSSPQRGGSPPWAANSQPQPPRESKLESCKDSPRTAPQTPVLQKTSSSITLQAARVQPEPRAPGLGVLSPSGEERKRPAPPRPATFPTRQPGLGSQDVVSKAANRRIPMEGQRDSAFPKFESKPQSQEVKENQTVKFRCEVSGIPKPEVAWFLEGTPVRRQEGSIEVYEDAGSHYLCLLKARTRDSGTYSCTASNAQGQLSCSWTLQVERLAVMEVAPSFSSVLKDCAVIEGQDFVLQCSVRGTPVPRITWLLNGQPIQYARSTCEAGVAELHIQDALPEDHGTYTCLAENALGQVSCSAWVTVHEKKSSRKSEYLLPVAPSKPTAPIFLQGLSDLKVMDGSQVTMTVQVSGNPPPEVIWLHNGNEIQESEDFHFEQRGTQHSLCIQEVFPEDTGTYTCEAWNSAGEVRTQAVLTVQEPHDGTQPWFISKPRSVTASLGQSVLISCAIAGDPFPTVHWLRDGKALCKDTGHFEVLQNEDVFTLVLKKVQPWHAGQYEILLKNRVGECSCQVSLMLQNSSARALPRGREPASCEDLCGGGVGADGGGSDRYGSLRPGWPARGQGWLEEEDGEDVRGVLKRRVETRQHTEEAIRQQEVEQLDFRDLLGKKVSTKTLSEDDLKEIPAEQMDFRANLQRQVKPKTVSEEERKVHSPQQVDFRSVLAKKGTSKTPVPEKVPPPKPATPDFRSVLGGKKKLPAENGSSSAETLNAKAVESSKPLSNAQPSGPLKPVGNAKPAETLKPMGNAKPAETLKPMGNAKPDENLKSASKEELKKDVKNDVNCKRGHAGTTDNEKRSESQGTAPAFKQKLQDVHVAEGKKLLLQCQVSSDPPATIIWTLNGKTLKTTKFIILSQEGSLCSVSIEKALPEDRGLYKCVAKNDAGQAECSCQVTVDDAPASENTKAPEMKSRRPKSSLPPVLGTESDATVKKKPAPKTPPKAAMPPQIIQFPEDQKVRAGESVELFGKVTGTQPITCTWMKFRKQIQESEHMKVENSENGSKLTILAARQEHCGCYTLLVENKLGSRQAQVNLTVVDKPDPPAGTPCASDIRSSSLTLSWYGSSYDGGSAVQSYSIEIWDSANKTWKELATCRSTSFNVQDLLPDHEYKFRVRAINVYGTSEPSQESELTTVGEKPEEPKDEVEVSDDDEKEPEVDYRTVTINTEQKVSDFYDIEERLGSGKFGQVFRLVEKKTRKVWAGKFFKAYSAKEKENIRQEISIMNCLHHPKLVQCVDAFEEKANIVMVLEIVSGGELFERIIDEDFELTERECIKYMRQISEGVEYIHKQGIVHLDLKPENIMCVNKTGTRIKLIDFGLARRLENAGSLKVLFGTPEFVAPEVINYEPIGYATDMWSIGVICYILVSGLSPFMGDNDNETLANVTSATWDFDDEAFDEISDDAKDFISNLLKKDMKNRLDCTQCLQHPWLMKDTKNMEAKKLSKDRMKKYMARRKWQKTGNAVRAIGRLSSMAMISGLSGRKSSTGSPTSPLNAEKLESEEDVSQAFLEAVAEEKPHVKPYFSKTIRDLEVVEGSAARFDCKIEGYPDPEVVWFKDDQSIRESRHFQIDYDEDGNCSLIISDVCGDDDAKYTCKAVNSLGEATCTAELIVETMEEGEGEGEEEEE
Procedure, shortened: as §1

TNIK = TNIK (Homo sapiens, UniProt Q9UKE5)
TNIK, sequence (Q9UKE5 whole entry): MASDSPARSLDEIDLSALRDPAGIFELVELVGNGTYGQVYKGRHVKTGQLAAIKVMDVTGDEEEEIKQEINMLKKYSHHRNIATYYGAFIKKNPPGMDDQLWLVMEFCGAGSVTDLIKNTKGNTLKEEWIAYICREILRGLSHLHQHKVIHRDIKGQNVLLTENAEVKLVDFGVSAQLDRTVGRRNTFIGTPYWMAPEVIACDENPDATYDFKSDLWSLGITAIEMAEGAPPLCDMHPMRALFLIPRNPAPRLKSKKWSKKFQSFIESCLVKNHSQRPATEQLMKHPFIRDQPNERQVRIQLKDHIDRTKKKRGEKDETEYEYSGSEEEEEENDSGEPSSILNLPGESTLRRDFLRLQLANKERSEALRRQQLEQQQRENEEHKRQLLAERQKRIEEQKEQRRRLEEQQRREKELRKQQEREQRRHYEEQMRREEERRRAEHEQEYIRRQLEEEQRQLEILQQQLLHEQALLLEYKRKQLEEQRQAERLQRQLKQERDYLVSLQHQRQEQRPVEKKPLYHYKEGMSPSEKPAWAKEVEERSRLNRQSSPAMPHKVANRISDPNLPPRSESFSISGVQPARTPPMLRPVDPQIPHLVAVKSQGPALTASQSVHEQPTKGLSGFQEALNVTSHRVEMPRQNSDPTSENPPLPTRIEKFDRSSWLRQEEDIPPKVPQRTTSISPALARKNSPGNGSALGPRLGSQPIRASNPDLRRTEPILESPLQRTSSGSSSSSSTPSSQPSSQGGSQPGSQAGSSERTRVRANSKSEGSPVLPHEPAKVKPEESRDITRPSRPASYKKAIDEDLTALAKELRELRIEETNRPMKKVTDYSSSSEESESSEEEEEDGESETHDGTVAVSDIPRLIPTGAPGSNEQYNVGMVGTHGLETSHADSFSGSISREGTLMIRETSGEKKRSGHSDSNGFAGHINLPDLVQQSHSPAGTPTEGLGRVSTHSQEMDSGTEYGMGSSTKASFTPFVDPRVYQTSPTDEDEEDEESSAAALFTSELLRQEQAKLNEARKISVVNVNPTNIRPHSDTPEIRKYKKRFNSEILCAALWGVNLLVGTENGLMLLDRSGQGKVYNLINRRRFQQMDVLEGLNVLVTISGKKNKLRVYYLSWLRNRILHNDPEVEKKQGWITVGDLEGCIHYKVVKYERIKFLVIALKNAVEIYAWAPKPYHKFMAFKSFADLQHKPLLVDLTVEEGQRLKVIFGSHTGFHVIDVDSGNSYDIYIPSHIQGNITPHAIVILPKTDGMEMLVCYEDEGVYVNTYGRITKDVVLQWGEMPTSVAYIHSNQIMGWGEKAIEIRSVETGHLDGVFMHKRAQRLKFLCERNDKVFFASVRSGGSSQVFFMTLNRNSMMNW
Procedure, shortened: as §1

STK17A (DRAK1) = target: T1, STK17A (DRAK1) (Homo sapiens, UniProt Q9UEE5)
T1 sequence (Q9UEE5 1-414): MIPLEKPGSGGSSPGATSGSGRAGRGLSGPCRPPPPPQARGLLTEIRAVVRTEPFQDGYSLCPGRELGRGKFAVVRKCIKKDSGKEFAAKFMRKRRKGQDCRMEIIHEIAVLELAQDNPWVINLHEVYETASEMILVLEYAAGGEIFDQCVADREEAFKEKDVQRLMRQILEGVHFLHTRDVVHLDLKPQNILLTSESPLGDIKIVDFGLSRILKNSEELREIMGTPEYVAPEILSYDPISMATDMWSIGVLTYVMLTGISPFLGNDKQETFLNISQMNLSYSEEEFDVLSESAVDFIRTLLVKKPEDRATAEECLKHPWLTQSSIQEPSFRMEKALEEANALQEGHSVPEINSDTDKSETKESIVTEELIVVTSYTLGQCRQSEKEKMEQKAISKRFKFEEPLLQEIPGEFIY
Procedure, shortened: as §1

CLK4 = CLK4 (Homo sapiens, UniProt Q9HAZ1)
CLK4, sequence (Q9HAZ1 whole entry): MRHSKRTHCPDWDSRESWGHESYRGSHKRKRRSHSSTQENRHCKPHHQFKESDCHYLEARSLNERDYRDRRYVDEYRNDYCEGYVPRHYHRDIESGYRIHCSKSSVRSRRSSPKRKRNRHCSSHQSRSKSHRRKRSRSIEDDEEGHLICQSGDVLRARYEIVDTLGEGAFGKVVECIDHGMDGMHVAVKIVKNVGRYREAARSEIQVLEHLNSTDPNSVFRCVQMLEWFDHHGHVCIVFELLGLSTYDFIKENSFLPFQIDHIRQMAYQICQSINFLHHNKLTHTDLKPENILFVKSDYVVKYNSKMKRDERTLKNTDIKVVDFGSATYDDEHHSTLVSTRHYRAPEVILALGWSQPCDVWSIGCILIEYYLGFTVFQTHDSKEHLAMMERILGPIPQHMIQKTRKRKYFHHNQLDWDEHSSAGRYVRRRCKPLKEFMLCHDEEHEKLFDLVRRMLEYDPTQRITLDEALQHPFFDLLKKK
Procedure, shortened: as §1

DMPK = target: T2, DMPK (Homo sapiens, UniProt Q09013)
T2 sequence (Q09013 1-629): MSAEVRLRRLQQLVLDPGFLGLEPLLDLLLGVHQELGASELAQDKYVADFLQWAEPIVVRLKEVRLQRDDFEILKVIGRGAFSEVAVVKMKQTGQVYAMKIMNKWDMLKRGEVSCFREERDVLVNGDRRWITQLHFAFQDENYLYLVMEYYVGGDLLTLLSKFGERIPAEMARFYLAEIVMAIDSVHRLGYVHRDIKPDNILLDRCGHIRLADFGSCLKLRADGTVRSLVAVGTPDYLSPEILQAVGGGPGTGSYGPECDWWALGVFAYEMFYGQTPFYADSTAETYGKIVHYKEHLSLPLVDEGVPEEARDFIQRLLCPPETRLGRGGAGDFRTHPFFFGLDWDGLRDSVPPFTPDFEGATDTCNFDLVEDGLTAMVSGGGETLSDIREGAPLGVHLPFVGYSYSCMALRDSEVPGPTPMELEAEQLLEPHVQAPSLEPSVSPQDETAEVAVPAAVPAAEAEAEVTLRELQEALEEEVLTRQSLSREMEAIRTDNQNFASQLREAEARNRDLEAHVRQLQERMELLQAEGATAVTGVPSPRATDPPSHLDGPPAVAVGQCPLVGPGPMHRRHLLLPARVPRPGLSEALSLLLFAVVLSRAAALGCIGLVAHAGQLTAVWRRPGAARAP
Procedure, shortened: as §1

MKNK2 (MNK2), sequence (Q9HBH9 whole entry): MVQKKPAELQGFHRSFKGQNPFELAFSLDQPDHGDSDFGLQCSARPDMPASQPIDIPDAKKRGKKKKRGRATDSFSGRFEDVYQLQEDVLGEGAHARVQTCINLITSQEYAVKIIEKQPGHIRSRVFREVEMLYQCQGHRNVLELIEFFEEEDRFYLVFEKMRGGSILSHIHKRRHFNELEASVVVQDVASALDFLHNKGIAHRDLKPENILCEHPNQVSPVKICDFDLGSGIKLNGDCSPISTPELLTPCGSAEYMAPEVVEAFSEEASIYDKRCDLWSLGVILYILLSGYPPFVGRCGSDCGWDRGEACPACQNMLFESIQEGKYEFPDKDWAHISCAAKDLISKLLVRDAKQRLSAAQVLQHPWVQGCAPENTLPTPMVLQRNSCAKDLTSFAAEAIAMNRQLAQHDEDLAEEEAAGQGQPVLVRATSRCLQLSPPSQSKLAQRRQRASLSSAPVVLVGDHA

CCN1CCN(c2ccc(Nc3cc(Nc4cccc5c4N(C(C)=O)CC5)ccn3)cc2)CC1 [Compound 1938]
% Displacement Point 1 (MKNK2 (MNK2)): 20%
% Displacement Point 2 (MKNK2 (MNK2)): 17%
% Displacement mean (MKNK2 (MNK2)): 18%
% Displacement Point 1 (CDK2/cyclin E1): 3%
% Displacement Point 2 (CDK2/cyclin E1): -14%
% Displacement mean (CDK2/cyclin E1): -5.56%
% Displacement Point 1 (RET V804M): 1.24%
% Displacement Point 2 (RET V804M): -3%
% Displacement mean (RET V804M): -0.94%
% Displacement Point 1 (MYLK (MLCK)): 1.85%
% Displacement Point 2 (MYLK (MLCK)): 2.24%
% Displacement mean (MYLK (MLCK)): 2%
% Displacement Point 1 (TNIK): 23%
% Displacement Point 2 (TNIK): 25%
% Displacement mean (TNIK): 24%
% Displacement Point 1 (STK17A (DRAK1)): 2.26%
% Displacement Point 2 (STK17A (DRAK1)): 10%
% Displacement mean (STK17A (DRAK1)): 6.32%
% Displacement Point 1 (CLK4): 1.72%
% Displacement Point 2 (CLK4): 6.61%
% Displacement mean (CLK4): 4%
% Displacement Point 1 (DMPK): 4.22%
% Displacement Point 2 (DMPK): 0.782%
% Displacement mean (DMPK): 2.5%
